We go through 2 compounds from article PMC7162492, “Pharmacological and pharmacokinetic profile of the novel ocular hypotensive prodrug CKLP1 in Dutch-belted pigmented rabbits” (PLoS ONE, 2020).

Broadly, the AUC(0-t) is exposure summed from dosing to a finite time, without extrapolation to infinity. Low readings indicate less exposure, high ones more exposure. Broadly, the Cmax is the maximum level reached in the sampled fluid or tissue. In general, half-life refers to the time in which the quantity being followed falls by half. One may read the Tmax as the time at which the peak concentration occurs.

Details of data set [1]: method as in earlier work. To be noted: ref Roy Chowdhury U, Viker KB, Stoltz KL, et al. J Med Chem. 2016;59(13):6221-31; cited from earlier work.
The nature of data set [2]: Plasma pharmacokinetics after topical eye drops of CKLP1, days 1, 4 and 8 (LC-MS/MS). The data set is classed as in vivo, Dutch-belted pigmented rabbits. To be noted: for AUC(0-t) / Cmax / half-life / Tmax: female, Dutch-belted pigmented, rabbit, topical or ocular; for AUC(0-t) / Cmax / half-life / Tmax / Clast / Tlast: plasma; for Cmax: read-out: Cmax; for half-life: read-out: Half-life (converted); for Tmax: read-out: Tmax (converted). As for the experimental part:
(§1) LC-MS/MS analysis of all fluids were performed using a Waters (Milford, MA) Acquity UPLC BEH C18 column (1.7 μm, 2.1 x 50 mm) with an Agilent EC-C18 pre-column (2.7 μm, 2.1 x 5 mm) and a gradient elution program containing ultra-pure water and acetonitrile with 2.5 mM ammonium formate, at a flow rate of 0.2 ml/min. Flavopiridol was used as an internal standard. The column and auto-sampler temperatures were maintained at 40°C and 4°C, respectively. Source parameters were capillary voltage, 2.6 kV; source temperature, 150°C; desolvation temperature, 500°C; cone gas flow, 150 L/h; and desolvation gas flow, 800 L/h. The cone voltages and collision energies for CKLP1, levcromakalim and flavopiridol were determined by MassLynx-Intellistart software, v4.1, and were 32, 34 and 72 V (cone) and 20, 14 and 30 eV (collision), respectively. The retention times were 4.5 minutes for CKLP1, 5.9 minutes for levcromakalim and 5.7 minutes for flavopiridol.
(§2) To validate accurate measurement of CKLP1 and levcromakalim, known concentrations of CKLP1 (5, 10, 25, 50, 100, 250, 500 ng/ml) and levcromakalim (1, 5, 10, 25, 50, 100, 250 ng/ml) were added to human plasma (obtained from the Mayo Clinic Division of Transfusion Medicine under an Institutional Review Board approved protocol) to make calibration curves. Quality control was determined for each run by using known quantities of CKLP1 and levcromakalim to verify that the instrument recorded values consistent with the established standard curve. The effect of carryover was evaluated by injecting blank samples before and after running the standard samples for calibration curves. Unknown samples with signal to noise ratios >10 were recorded as acceptable concentrations. Samples with signal to noise ratios <10 were reported as not detectable (ND). Controls consisted of a double blank (without analytes and internal standard) and a single blank (only internal standard). The linearity of the calibration curves was determined by plotting the ratios of analytes to internal standard peak areas. The curve was fitted by least squares regression with a 1/x weighting for both CKLP1 and levcromakalim. Data was collected from 3–6.4 minutes for CKLP1 and 4–8 minutes for both levcromakalim and flavopiridol. Waters MassLynx Intellistart software v4.1 was used for analysis.
(§3) All experiments with animals were pre-approved by the Institutional Animal Care and Use Committee of the Mayo Clinic, Rochester, MN and adhered to the recommendations in the Guide for the Care and use of Laboratory Animals of the National Institutes of Health, and the tenets of the ARVO Statement for the Use of Animals in Vision Research. Female Dutch-belted pigmented rabbits (age 7 months) were obtained from Covance Research Products, Inc. (Denver, PA). Rabbits were housed in pairs and kept in a climate controlled room with 12 h light and dark cycles. Animals had unrestrained access to water and standard rabbit food pellets at all times. Upon receipt, animals were acclimated for at least 5 days before initiation of the experiment. IOP was measured with a handheld rebound tonometer (Icare Tonovet, Colonial Medical Supply, Franconia, NH, USA) in conscious and minimally restrained, non-anesthetized rabbits as previously described. Briefly, daily IOP was calculated from the average of 3 independent IOP measurements at 3 different time points each day. These time points corresponded to 1 h, 4 h and 23 h post treatment on any given day. Rabbits that needed to be handled for IOP were subjected to sham IOP measurements for two days prior to initiation of experiment. Rabbits (n = 3) were injected intravenously through the right ear vein with CKLP1 as a bolus dose equal to 0.25 mg/kg body weight. Additional rabbits were treated topically through instillation of 50 μl eye drops of a 10 mM (4.1 mg/ml) solution of CKLP1 in sterile PBS. […]

Data set [3] in a line: Plasma pharmacokinetics after single intravenous injection of CKLP1 (LC-MS/MS). Type of data set: in vivo, Dutch-belted pigmented rabbits. The method, then:
as §1, §2, §3

Data set [4] can be described thus: Tissue and fluid distribution after 90 days of daily topical CKLP1 (LC-MS/MS). Type of data set: in vivo, Dutch-belted pigmented rabbits. To be noted: topical eye drops 10 mM CKLP1, 90 consecutive days. The method, then: as §1, §2, §3
Data set [5] is described as follows: Concentration in aqueous and vitreous humor after topical CKLP1 for 1, 4 or 8 days (LC-MS/MS). Type of data set: in vivo, Dutch-belted pigmented rabbits. To be noted: topical CKLP1 both eyes, days 1, 4 and 8, collected after the 24 h blood sample; for concentration at 24 h: female, Dutch-belted pigmented, rabbit. As for the experimental part: as §1, §2, §3
The mark [6] stands for this setting: eye drops 10 mM CKLP1 both eyes once daily, Day 4.
The mark [7] stands for this setting: eye drops 10 mM CKLP1 both eyes once daily, Day 8.
Setting [8] is: eye drops 10 mM CKLP1 both eyes, Day 1.
[9] abbreviates: rabbit, intravenous 0.25 mg/kg CKLP1.

Each structure is given as a SMILES string. Values joined by “and” are separate entries in the source; they are usually repeats but may differ in a detail not shown here. Equal values may be shown once. Read-outs that look alike come from different tables or passages of the source.

With `CC1(C)Oc2ccc(C#N)cc2C(N2CCCC2=O)C1O` (stereo not drawn) [Cromakalim, cromakalim, reference compound], the Solubility in water entry in data set [1] is given as “insoluble in water”.

Take `CC1(C)Oc2ccc(C#N)cc2[C@@H](N2CCCC2=O)[C@@H]1O` [Levcromakalim, levcromakalim, reference compound]: in data set [2] (setting [6]), the area under the curve AUC(0-t) was found to be 10.9 ± 6 ng·h/mL, the Cmax came to 0.9 ± 0.7 ng/mL, the half-life was 25.8 ± 13.7 h and the Tmax is 3.33 h. In data set [2] (setting [6]), this compound came in with a Clast of 0.3 ± 0.1 ng/mL and a Tlast of 24.0 ± 0.0 h. Besides, in data set [2] (setting [7]), the AUC(0-t) is 10.2 ± 0.3 ng·h/mL, the Cmax was found to be 0.6 ± 0.3 ng/mL, the half-life was 12.2 ± 5.6 h and the Tmax was 2.33 h. For the same compound, in data set [2] (setting [7]), the Clast worked out at 0.2 ± 0.1 ng/mL and the Tlast is given as 18.7 ± 9.2 h. Also, in data set [2] (setting [8]), the AUC(0-t) turned out to be 6.1 ± 2 ng·h/mL, the highest concentration (Cmax) came to 0.4 ± 0.1 ng/mL, the half-life is 13.2 ± 2.6 h and the Tmax is 6.67 h. In data set [2] (setting [8]), this compound registered a Clast of 0.1 ± 0.1 ng/mL and a Tlast of 24.0 ± 0.0 h. Further, the “Amount in plasma after topical CKLP1” value in data set [2] (topical 10 mM CKLP1 in the eye) is recorded as “trace amounts”. The AUC(0-t) in data set [3] (female, Dutch-belted pigmented, rabbit, intravenous 0.25 mg/kg CKLP1) was 120 ± 93.7 ng·h/mL. Also, the Cmax in data set [3] (female, Dutch-belted pigmented, rabbit, intravenous 0.25 mg/kg CKLP1, read-out: Cmax) was 10.6 ± 1.2 ng/mL. Besides, the half-life in data set [3] (female, Dutch-belted pigmented, rabbit, intravenous 0.25 mg/kg CKLP1, read-out: Half-life) worked out at 1.42 ± 0.617 h. For the same compound, the Tmax in data set [3] (female, Dutch-belted pigmented, rabbit, intravenous 0.25 mg/kg CKLP1, read-out: Tmax (converted)) is 1.02 h. Besides, the “Peak concentration (Cmax) of levcromakalim relative to CKLP1” value in data set [3] (intravenous CKLP1, fold less than CKLP1) is roughly 200 fold. For the same compound, in data set [3] (setting [9]), the Clast was 4.4 ± 4.3 ng/mL and the Tlast turned out to be 16.0 ± 8.9 h. In data set [4], the “Concentration in Brain” value is reported as “not detected”; the “Concentration in Heart” value is recorded as “not detected”; the “Concentration in Liver” value is on record as 5.9 ± 4.3 (n = 4/6) ng/g; the “Concentration in Lung” value was 1.5 ± 0.0 ng/g and 1.5 ± 0.0 (n = 6/6) ng/g. Further, in data set [4], the “Concentration in Muscle” value is given as “not detected”, the “Concentration in Plasma” value is recorded as “no detectable levels”, the “Concentration in aqueous humor” value was 0.2 ± 0.1 (n = 4/6) ng/ml and the “Concentration in vitreous humor” value was 0.1 ± 0.0 (n = 3/6) ng/ml. Also, in data set [4] (listed as levcromakalim), the “Concentration in Liver” value came out at 5.9 ± 4.3 ng/g, the “Concentration in aqueous humor” value was 0.2 ± 0.1 ng/mL and the “Concentration in vitreous humor” value was determined as 0.1 ± 0.0 ng/mL. Also, the concentration at 24 h in data set [5] (aqueous humor, read-out: Concentration in aqueous humor) was less than 0.3 ng/mL. Moreover, the concentration at 24 h in data set [5] (vitreous humor, read-out: Concentration in vitreous humor) was less than 0.3 ng/mL. Also, in data set [5], the “Concentration in aqueous humor” value is “low levels” and the “Concentration in vitreous humor” value is reported as “low levels”.
